Entries after “also recorded” stand apart in the source; their conditions may differ. Structures can show the parent of a compound that is named as a salt. Where two headings read alike, the source gives them in different places.
How the values were obtained:
human α7V274T nAChR [1] = target: T1, human α7V274T nAChR (Homo sapiens, UniProt P36544, V274T); test: Agonist concentration-response, two-electrode voltage-clamp in Xenopus laevis oocytes; type: cell-based
T1 construct: This created a new cDNA encoding a full length α7 subunit; expressed in transfected cells

human α7 wild type nAChR [2] = target: T2, human α7 wild type nAChR (Homo sapiens, UniProt P36544); test: as above; type: cell-based; conditions: for Hill coefficient: Hill equation fit
T2 construct: This created a new cDNA encoding a full length α7 subunit; expressed in transfected cells; host or cells: Xenopus laevis oocytes injected with receptor RNA or DNA

human α7V274T nAChR [3] = target: T1, human α7V274T nAChR; test: Inhibition of the response to ACh in Xenopus oocytes; type: cell-based; conditions: for inhibition of ACh response: MEC 10 μM against 1 μM ACh in three of the five oocytes inhibited by atropine; for % Inhibition, 1 μM ACh: inhibition of response to 1 μM ACh; for % Inhibition, 1 μM ACh / % Inhibition, 10 μM ACh: ligand μM: DHβE 10, d-TC 1, MLA 0.01, MEC 10, ATROP 2; for % Inhibition, 10 μM ACh: inhibition of response to 10 μM ACh
human α7V274T nAChR [4] = target: T1, human α7V274T nAChR; test: nAChR antagonists applied alone as agonists, current response in Xenopus oocytes; type: cell-based; conditions: for % Activation, 10 μM ACh: compared to activation by 10 μM ACh, ligand μM: DHβE 10, d-TC 1, MLA 0.01, MEC 10, ATROP 2, mean ± s.e.m. (n)
human α7 wild type nAChR [5] = target: T2, human α7 wild type nAChR; test: as above; type: cell-based; conditions: ligand μM: DHβE 10, d-TC 1, MLA 0.01, MEC 10, ATROP 2
human α7 wild type nAChR [6] = target: T2, human α7 wild type nAChR; test: Inhibition of the response to ACh in Xenopus oocytes; type: cell-based; conditions: ligand μM: DHβE 10, d-TC 1, MLA 0.01, MEC 10, ATROP 2; for % Inhibition, % of 200 μM ACh: inhibition of response to 200 μM ACh; for % Inhibition, % of 10 mM ACh: inhibition of response to 10 mM ACh
chick α7L247T nAChR = chick α7L247T nAChR (Gallus gallus, UniProt P22770, L270T); conditions: cited from earlier work
chick α7V251T nAChR [7] = target: chick α7V251T nAChR (Gallus gallus, UniProt P22770, V274T); conditions: 10 μM DHβE; cited from earlier work
human α7 nAChR = human α7 nAChR (Homo sapiens, UniProt P36544); conditions: cited from earlier work
chick α7 nAChR = chick α7 nAChR (Gallus gallus, UniProt P22770); conditions: cited from earlier work
chick α7V251T nAChR [8] = conditions: cited from earlier work

SMILES	Hill coefficient (human α7V274T nAChR [1]; Hill equation fit)	% Inhibition, 1 μM ACh (human α7V274T nAChR [3])	% Inhibition, 10 μM ACh (human α7V274T nAChR [3])	% Activation, 10 μM ACh (human α7V274T nAChR [4])	% Activation, % of 10 mM ACh (human α7 wild type nAChR [5])	% Inhibition, % of 200 μM ACh (human α7 wild type nAChR [6])	% Inhibition, % of 10 mM ACh (human α7 wild type nAChR [6])	also measured
CN1CCCC1c1cccnc1 (single isomer, unassigned; (-)) [(−)-nicotine]	1.3±0.2	–	–	–	–	–	–	Hill coefficient (human α7 wild type nAChR [2]): 1.2±0.2
Cc1ncccc1OC[C@@H]1CCCN1 [ABT-089]	–	–	–	–	–	–	–	EC50 (human α7V274T nAChR [1]): 28 ± 3 µM; efficacy (human α7V274T nAChR [1]; responses normalized to the response to ACh): 40±1%; agonist type (human α7 wild type nAChR [2]): partial agonists
COc1cc2c3cc1Oc1cc(ccc1O)C[C@@H]1c4c(cc(OC)c(O)c4Oc4ccc(cc4)C[C@@H]3N(C)CC2)CC[N+]1(C)C.Cl.O.O.O.O.O.[Cl-] [d-TC, d-tubocurarine chloride]	–	99 ± 1 (4) %	97 ± 3 (3) %	−2 ± 1 (4) %	−0.1 ± 0.1 (5) %	28 ± 2 (4) %	25 ± 3 (4) %	inhibition of ACh response (human α7V274T nAChR [3]): potent antagonist; outward current amplitude, % of the maximal inward current response to ACh (human α7V274T nAChR [4]; MLA 10 nM, MEC 10 μM, d-TC 1 μM (d-TC in two of four oocytes)): 3-5%; current response to ligand alone (human α7V274T nAChR [4]; d-TC 1 μM, atropine 2 μM): did not elicit agonist-like inward currents; also recorded: did not activate inward currents; activation of inward current (chick α7L247T nAChR): full response
Br.CO[C@H]1CC=C2CCN3CCC4=C(CC(=O)OC4)[C@]23C1 [DHβE, Dihydro-β-erythroidine hydrobromide]	–	69 ± 5 (4) %	52 ± 6 (4) %	4 ± 1 (4) %	−0.2 ± 0.1 (5) %	41 ± 10 (4) %	23 ± 2 (4) %	response as % of the ACh response (chick α7V251T nAChR [7]): 66%
C[N+]1(C)CCN(c2ccccc2)CC1 [DMPP, 1,1-dimethyl-4-phenylpiperazinium]	–	–	–	–	–	–	–	agonist type (human α7 nAChR): highly efficacious agonist; agonist type (chick α7 nAChR): very weak partial agonist
CC(=O)OCC[N+](C)(C)C [ACh, Acetylocholine chloride]	1.8±0.2	–	–	–	–	–	–	increase in ACh potency versus chick α7 wild type (chick α7V251T nAChR [8]): 180 fold; Hill coefficient (human α7 wild type nAChR [2]): 0.94±0.09
CNC1(C)C2CCC(C2)C1(C)C (centres unmarked) [MEC, mecamylamine hydrochloride]	–	101 ± 1 (4) %	53 ± 2 (4) %	−1.9 ± 0.2 (4) %	−0.3 ± 0.2 (3) %	82 ± 1 (3) %	85 ± 3 (3) %	inhibition of ACh response (human α7V274T nAChR [3]): completely blocked
COc1ccc(/C=C2\CCCN=C2c2cccnc2)c(OC)c1 [GTS-21]	1.5±0.1	–	–	–	–	–	–	agonist type (human α7V274T nAChR [1]): full agonist; EC50 (human α7V274T nAChR [1]; peak amplitude normalized to ACh response, Hill equation fit, holding potential −60 mV): 4.3 ± 0.3 µM; agonist type (human α7 wild type nAChR [2]): partial agonists
